Experimental findings from patent US20130323361A1, “NUTRITIONAL COMPOSITIONS INCLUDING EXOGENOUS VITAMIN K2” (NESTEC S.A., priority 2009, published 2013) are described below.

Holding throughout (assay type): in vivo, Male Sprague-Dawley rats
Assay [1] relates to NFαB p65. The experiment in a line: Immunoblot of phosphorylated p65 in gastrocnemius muscle of LPS-challenged rats. The settings on record: 25 or 50 microgram oral daily over 7 days, LPS 0.5 mg/kg IP, compared to LPS treatment. The procedure:
(§1) Male Sprague-Dawley rats (175 g) are kept on a 12-h light:dark cycle with food (Harlan-Teklad Rodent Chow, Madison, Wis.) and water provided freely. Animals are administered daily doses of vitamin K2 (MK-7) or saline (control) via oral gavage over 7 days. Stock solutions of vitamin K2 are prepared containing 3.5 g/L HCO-60 and 1 g/L of […] in buffer A (0.15 M NaCl, 0.05 M Tris-HCl, pH 7.5). The K2 is dissolved by sonication during five pulses of 5 set with an amplitude of 6 pm. Solutions thus obtained are clear, homogeneous, and stable. […]
(§2) Analysis of mTOR Signaling to elFs—Gastrocnemius muscles are weighed and homogenized in 7 volumes of buffer containing 20 mM HEPES (pH 7.4), 100 mM potassium chloride, 0.2 mM EDTA, 2 mM EGTA, 50 mM sodium fluoride, 50 mM glycerophosphate, 0.1 mM phenylmethylsulfonyl fluoride, 1 mM benzamidine, 1 mM dithiothreitol (DTT), and 0.5 mM sodium vanadate. […] Samples are analyzed for the phosphorylation status of 4E-BP 1 (Thr37) and ribosomal protein S6 (Ser 235/236), the anti-phosphospecific antibodies were obtained from Cell Signaling Technology, Beverly, Mass. Additionally, samples are analyzed for phosphorylated IKKα/β (Ser176/180; Cell Signaling Technology) and phosphorylated p65 (Ser536; Cell Signaling Technology).

For assay [2], the system named is plasma TNF-a. The experiment in a line: Plasma TNF-a in LPS-challenged rats. Conditions: 25 or 50 microgram oral daily over 7 days, LPS 0.5 mg/kg IP 2 hours after last dose, sacrifice four hours later, compared to LPS treated animals. The method, then: (§3) Male Sprague-Dawley rats (175 g) are kept on a 12-h light:dark cycle with food (Harlan-Teklad Rodent Chow, Madison, Wis.) and water provided freely. Animals are administered daily doses of vitamin K2 (MK-7) or saline (control) via oral gavage over 7 days. Stock solutions of vitamin K2 are prepared containing 3.5 g/L HCO-60 and 1 g/L of […] in buffer A (0.15 M NaCl, 0.05 M Tris-HCl, pH 7.5). The K2 is dissolved by sonication during five pulses of 5 set with an amplitude of 6 pm. Solutions thus obtained are clear, homogeneous, and stable. Shortly before vitamin K administration the stock solutions are diluted five times with buffer A, leading to a final HCO-60 concentration of 0.7 g/L. Further dilutions (as required) are made with 0.7 g/L HCO-60 in buffer A. Each dilution step is followed by sonication as described above. In all cases vitamin K2 is administered to the rats in 0.5 mL samples, with either 25 or 50 microgram oral doses.
On the final day (Day 7), rodents are administered vitamin K2 and 2 hours later were given an IP dose of LPS (Escherichia coli serotype 0111:B4, L2630, Sigma) intraperitoneally (0.5 mg/kg of body weight). Four hours later animals are sacrificed.

Assay [3] concerns IKKα/β (Ser176/180). The experiment in a line: Immunoblot of phosphorylated IKKα/β in gastrocnemius muscle of LPS-challenged rats. Conditions: 25 or 50 microgram oral daily over 7 days, LPS 0.5 mg/kg IP, compared to LPS treatment. The procedure: as §1, §2
Assay [4] deals with 4E-BP 1 (Thr37). The experiment in a line: mTOR signaling: 4E-BP1 phosphorylation in gastrocnemius muscle of LPS-challenged rats. Conditions: 25 or 50 microgram oral daily over 7 days, LPS 0.5 mg/kg IP, compared to LPS treatment. The procedure: as §1, §2
The test system of assay [5] is ribosomal protein S6 (Ser 235/236). The assay can be described thus: mTOR signaling: ribosomal protein S6 phosphorylation in gastrocnemius muscle of LPS-challenged rats. Conditions: 25 or 50 microgram oral daily over 7 days, LPS 0.5 mg/kg IP, compared to LPS treatment. The procedure: as §1, §2
Assay [6] concerns total mixed muscle protein. The assay can be described thus: Measurement of protein synthesis (fractional rate Ks, radioactive phenylalanine incorporation) in LPS-challenged rats. The settings on record: 25 or 50 microgram oral daily over 7 days, LPS 0.5 mg/kg IP, under conditions of inflammatory sepsis, compared to LPS treatment. The method, then: as §3, with “doses. […]” for “doses.”
Measurement of Protein Synthesis—The fractional rate of synthesis (Ks) is estimated from the rate of incorporation of radioactive phenylalanine into total mixed muscle protein using the specific radioactivity of serum phenylalanine as representative of the precursor pool. […]

As to `CC(C)=CCC/C(C)=C/CC/C(C)=C/CC/C(C)=C/CC/C(C)=C/CC/C(C)=C/CC/C(C)=C/CC1=C(C)C(=O)c2ccccc2C1=O` [K2, vitamin K2 (MK-7)], the “NFαB p65 induction” value in assay [1] was “significant blunting”. Besides, the “rise of plasma TNF-a” value in assay [2] is given as “significant decrease in the rise”. Also, the “drop in phosphorlyation for IKKα/β” value in assay [3] was “significant blunting of the drop in phosphorlyation”. Also, the “decrease in 4E-BPI(Thr-37) phosphorylation” value in assay [4] is listed as “abrogates the decrease”. Further, in assay [5], the “decrease in ribosomal protein S6 phosphorylation” value is “abrogates the decrease”. Besides, the “fractional rate of mixed muscle protein synthesis” value in assay [6] was “greater preservation”.
